# What was measured:
# Format in all cases: in vivo
# Phakopsora pachyrhizi = assay: Test D: test solution sprayed on soybean seedlings, inoculated next day with Phakopsora pachyrhizi (Asian soybean rust); visual disease rating (100 = 100% disease control, 0 = no control; dash = not tested)
# Source text: General protocol for preparing test suspensions for Tests A-F: the test compounds were first dissolved in acetone in an amount equal to 3% of the final volume and then suspended at the desired concentration (in ppm) in acetone and purified water (50/50 mix by volume) containing 250 ppm of the surfactant PEG400 (polyhydric alcohol esters). The resulting test suspensions were then used in Tests A-F.
# The test solution was sprayed to the point of run-off on soybean seedlings. The following day the seedlings were inoculated with a spore suspension of Phakopsora pachyrhizi (the causal agent of Asian soybean rust) and incubated in a saturated atmosphere at 22° C. for 24 h and then moved to a growth chamber at 22° C. for 8 days, after which time visual disease ratings were made.
# A rating of 100 indicates 100% disease control and a rating of 0 indicates no disease control (relative to the controls). A dash (—) indicates the compound was not tested.
# [1] = system: Puccinia recondita f. sp. tritici; assay: Test B: test solution sprayed on wheat seedlings, inoculated next day with Puccinia recondita f. sp. tritici (wheat leaf rust); disease rating (100 = 100% disease control, 0 = no control; dash = not tested)
# Source text: The resulting test suspensions were then used in Tests A-F. The test solution was sprayed to the point of run-off on wheat seedlings. […] A rating of 100 indicates 100% disease control and a rating of 0 indicates no disease control (relative to the controls). A dash (—) indicates the compound was not tested.
# Alternaria solani = assay: Test F: test suspension sprayed on tomato seedlings, inoculated next day with Alternaria solani (tomato early blight); visual disease rating (100 = 100% disease control, 0 = no control; dash = not tested)
# Procedure: (§1) The resulting test suspensions were then used in Tests A-F. The test suspension was sprayed to the point of run-off on tomato seedlings. The following day the seedlings were inoculated with a spore suspension of Alternaria solani (the causal agent of tomato early blight) and incubated in a saturated atmosphere at 27° C. for 48 h, and then moved to a growth chamber at 20° C. for 3 days, after which time visual disease ratings were made. A rating of 100 indicates 100% disease control and a rating of 0 indicates no disease control (relative to the controls). A dash (—) indicates the compound was not tested.
# Zymoseptoria tritici = assay: Test A: test solution sprayed on wheat seedlings, inoculated next day with Zymoseptoria tritici (wheat leaf blotch); disease rating (100 = 100% disease control, 0 = no control; dash = not tested)
# Procedure: The resulting test suspensions were then used in Tests A-F. The test solution was sprayed to the point of run-off on wheat seedlings. The following day the seedlings were inoculated with a spore suspension of Zymoseptoria tritici (the causal agent of wheat leaf blotch) and incubated in a saturated atmosphere at 24° C. for 48 h, and then moved to a growth chamber at 20° C. for 17 days, after which time disease ratings were made. A rating of 100 indicates 100% disease control and a rating of 0 indicates no disease control (relative to the controls). A dash (—) indicates the compound was not tested.
# Botrytis cinerea = assay: Test E: test suspension sprayed on tomato seedlings, inoculated next day with Botrytis cinerea (tomato Botrytis); visual disease rating (100 = 100% disease control, 0 = no control; dash = not tested)
# Procedure: as §1, with “Botrytis cinerea” for “Alternaria solani”, “Botrytis)” for “early blight)”, “20°” for “27°”, “24°” for “20°”
# [2] = system: Blumeria graminis f. sp. tritici; assay: Test C: test suspension sprayed on wheat seedlings, inoculated next day with Blumeria graminis f. sp. tritici (wheat powdery mildew); visual disease rating (100 = 100% disease control, 0 = no control; dash = not tested)
# Procedure: as §1, with “on wheat” for “on tomato”, “spore dust” for “spore suspension”, “of Blumeria graminis f. sp. tritici, (also known as Erysiphe graminis f. sp. tritici, the” for “of Alternaria solani (the”, “of wheat powdery mildew)” for “of tomato early blight)”, “in” for “in a saturated atmosphere at 27° C. for 48 h, and then moved to”, “for 8” for “for 3”
Compound,Test D disease control rating (Phakopsora pachyrhizi; 50 ppm) [%],Test B disease control rating ([1]; 50 ppm) [%],Test F disease control rating (Alternaria solani; 50 ppm) [%],Test A disease control rating (Zymoseptoria tritici; 50 ppm) [%],Test E disease control rating (Botrytis cinerea; 50 ppm) [%],Test C disease control rating ([2]; 50 ppm) [%],other results
COc1ccc(C)c(-c2nn(C)c(=O)c(C)c2-c2ccc(F)cc2Cl)c1 [Compound 135],100,100,100,100,97,100,
COc1ccc(Cl)c(C2=NN(C)C(=O)C(C)C2c2c(F)cccc2F)c1 (stereo not drawn) [Compound 208],0,100,100,96,100,99,
"COc1cc(OC)cc(-c2nn(C)c(=O)c(C)c2-c2c(F)cccc2F)c1 [Compound 21, 5-(2,6-difluorophenyl)-6-(3,5-dimethoxyphenyl)-2,4-dimethyl-3 (2H)-pyridazinone]",,,,,,,pest or weed control at 250 ppm (Phakopsora pachyrhizi; 250 ppm): 100%; pest or weed control at 250 ppm ([1]; 250 ppm): 100%; pest or weed control at 250 ppm (Alternaria solani; 250 ppm): 99%; pest or weed control at 250 ppm (Zymoseptoria tritici; 250 ppm): 100%; pest or weed control at 250 ppm (Botrytis cinerea; 250 ppm): 100%; pest or weed control at 250 ppm ([2]; 250 ppm): 100%
COc1cc(C#N)c(Cl)c(-c2nn(C)c(=O)c(Cl)c2-c2ccc(F)cc2Cl)c1 [Compound 51],100,100,100,100,96,99,
CCc1c(-c2ccc(F)cc2Cl)c(-c2c(Cl)c(OC)cc(OC)c2Br)nn(C)c1=O [Compound 45],0,0,0,0,0,69,
COc1ccc(-c2nn(C)c(=O)cc2-c2c(F)cccc2F)c(F)c1 [Compound 192],,,,,,,Test D disease control rating (Phakopsora pachyrhizi; 250 ppm): 91%; Test B disease control rating ([1]; 250 ppm): 80%; Test F disease control rating (Alternaria solani; 250 ppm): 0%; Test A disease control rating (Zymoseptoria tritici; 250 ppm): 38%; Test E disease control rating (Botrytis cinerea; 250 ppm): 93%; Test C disease control rating ([2]; 250 ppm): 84%
CCn1nc(-c2cc(OC)cc(OC)c2)c(-c2ccc(F)cc2Cl)cc1=O [Compound 26],,,,,,,Test D disease control rating (Phakopsora pachyrhizi; 250 ppm): 0%; Test B disease control rating ([1]; 250 ppm): 55%; Test F disease control rating (Alternaria solani; 250 ppm): 0%; Test A disease control rating (Zymoseptoria tritici; 250 ppm): 12%; Test E disease control rating (Botrytis cinerea; 250 ppm): 99%; Test C disease control rating ([2]; 250 ppm): 96%
"COc1c(-c2ccc(F)cc2Cl)c(-c2ccccc2)nn(C)c1=O [Compound 142, 5-(2-chloro-4-fluorophenyl)-4-methoxy-2-methyl-6-phenyl-3(2H)-pyridazinone]",,,,,,,pest or weed control at 50 ppm (Phakopsora pachyrhizi; 50 ppm): 0%; pest or weed control at 50 ppm ([1]; 50 ppm): 68%; pest or weed control at 50 ppm (Alternaria solani; 50 ppm): 98%; pest or weed control at 50 ppm (Zymoseptoria tritici; 50 ppm): 95%; pest or weed control at 50 ppm (Botrytis cinerea; 50 ppm): 98%; pest or weed control at 50 ppm ([2]; 50 ppm): 99%
CCn1nc(-c2cc(OC)cc(OC)c2Br)c(-c2c(F)cccc2F)cc1=O [Compound 17],73,99,0,98,99,94,
COc1c(-c2ccc(F)cc2Cl)c(-c2cccc(Cl)c2Cl)nn(C)c1=O [Compound 108],70,100,99,100,98,100,
COc1cc(OC)c(Br)c(-c2nn(C)c(=O)c(OC)c2-c2ccc(F)cc2Cl)c1 [Compound 79],100,100,100,100,97,100,
COc1cc(OC)cc(-c2nn(C)c(=O)c(C)c2-c2ccc(F)cc2Cl)c1 [Compound 65],94,100,99,99,100,98,
COc1cc(F)c(Cl)c(-c2nn(C)c(=O)c(Cl)c2-c2ccc(F)cc2Cl)c1 [Compound 157],100,100,100,98,99,100,
Cn1nc(-c2cccc(F)c2F)c(-c2ccc(F)cc2Cl)c(Cl)c1=O [Compound 107],100,100,100,100,97,100,
COc1ccc(Cl)c(-c2nn(C)c(=O)c(C3CC3)c2-c2ccc(F)cc2Cl)c1 [Compound 139],0,86,9,100,93,91,
CC(=O)c1c(-c2ccc(F)cc2Cl)c(-c2ccc(F)cc2Cl)nn(C)c1=O [Compound 124],73,0,0,100,88,95,
Cc1c(-c2ccc(F)cc2Cl)c(-c2cc(F)ccc2Cl)nn(C)c1=O [Compound 128],99,100,100,100,98,100,
CCn1nc(-c2cc(OC)cc(OC)c2Cl)c(-c2c(F)cccc2F)cc1=O [Compound 8],75,96,0,100,99,97,

# Source: patent US20230095836A1, “SUBSTITUTED 5,6-DIPHENYL-3(2H)-PYRIDAZINONES FOR USE AS FUNGICIDES” (FMC Corporation, priority 2020, published 2023)
